Key:
[1] = system: cardiac cell sheets expressing SthK and Rm3D; assay: Reentrant arrhythmia in cardiac cell sheets expressing SthK and Rm3D, optical mapping; type: cell-based, human
From the text: In order to express both the DREADD and the channel in the membrane of cardiomyocytes a vector encoding a single transcript was generated. The open reading frame for SthK was cloned downstream of the chicken B-actin promoter. Instead of a stop codon, at the end of SthK a P2A cleavable peptide was encoded followed by the Rm3D receptor in frame. The result is a reading frame (SEQ ID NO: 4) encoding an 874 amino acid construct (SEQ ID NO: 8) that is co-translationally cleaved near the end of the P2A peptide to produce separate SthK and Rm3D proteins from a single transcript.
Cardiac cell sheets (CCSs) were generated as a 2D tissue model from the transfected iPSC-CMs and the CCSs were loaded with an optical voltage-dependent dye and mapped using a high-speed EMCCD camera. […] Reentrant arrhythmias were induced by transient tachypacing, and the resultant arrhythmias were stable within the tissue (FIG. 7A). […] This was seen as an inability to excite the cells even with significant electrical stimulation. […] Furthermore, it was shown that a single washout of the drug led to rapid recovery of electrical excitability by electrical pacing (within 30-90 seconds of washout) and the spontaneous resumption of a normal rhythm (sinus) within 2-5 minutes, as would be expected after defibrillation/cardioversion (FIG. 7C). Thus, the arrythmias were successfully terminated upon application of CNO, and normal electrical activity returned almost immediately after washout.

[2] = system: CMs engineered to express the compound channel; assay: Coculture model: engineered CCS between two wild-type CCSs, reentrant arrhythmia; type: cell-based, human; settings: 5 nM
From the text: (§1) To further illustrate the potential of this technology a coculture model of wild type CMs and CMs engineered to express the compound channel was generated (FIG. 8). In this model, only the CMs in the CCS between the two wild-type CCSs express the compound channel that is responsive to CNO. Reentrant arrhythmias were induced that spanned the whole model. […] As such, the arrhythmia became relegated to a single side of the model. That is an arrhythmia with a core in one CCS (for example the right one) become relegate to just that CCS upon application of CNO, while the other (left) CCS remained unaffected. It was further shown that the left CCS could be electrically paced, and conduction was successful until the wave front reaches the unexcitable engineered CMs. […] Thus, it is clear that native CMs are unaffected by CNO, but the genetically engineered CMs can be robustly ‘silenced’ by the application of CNO at very low concentrations (2-5 nM). Further, arrhythmias are succinctly terminated as a result of this silencing. Upon washout normal electrical activity resumed in the engineered CMs.

native CMs = assay: Coculture model: native (wild type) CMs; type: cell-based, human; settings: 2-5 nM
From the text: as §1

[3] = system: rat hearts transplanted with chemogenetic hiPSC-CMs; assay: Optical mapping of Langendorff-perfused rat hearts engrafted with chemogenetic hiPSC-CMs; type: in vivo; settings: 30 nM, adenosine-induced bradycardia, 7-10 days after transplantation, ex-vivo perfusion
From the text: (§2) Finally, chemogenetic hiPSC-CMs were transplanted into rat hearts. After 7-10 days, hearts were harvested, perfused ex-vivo using a custom-made Langendorff apparatus and optically mapped. Bradycardia was induced using adenosine.

[4] = system: PSAM4-5HT3-hiPSC-CMs / control hiPSC-CMs co-culture; assay: Co-culture of PSAM4-5HT3-cGFP-hiPSC-CMs beside control hiPSC-CMs, optical mapping; type: cell-based, human
Description: We next created a co-culture model where the PSAM4-5HT3-cGFP-hiPSC-CMs were seeded beside control hiPSC-CMs (FIG. 4A).
Next, it was tested whether this chemogenetic approach could suppress tissue automaticity and excitability when using higher concentrations of Varenicline (100 nM), as it did in single cells, albeit at lower concentration. This dosing discrepancy probably stems from the more limited drug diffusion and the presence of stronger electrotonic coupling (attenuating Varenicline-induced depolarization) at the tissue level.

PSAM4-5HT3-hiPSC-CCS = assay: Optical mapping of PSAM4-5HT3-hiPSC-CCS tissue model; type: cell-based, human; settings: 5-30 nM
From the text: To assess the translational potential of these findings, a hiPSC-derived cardiac cell-sheet (hiPSC-CCS) tissue model generated from PSAM4-5HT3-hiPSC-CMs was utilized (FIG. 3A). […] This augmented automaticity was the result of Varenicline-induced depolarizing currents in pacemaker cells driving activity of the cultures.

PSAM4-5HT3-HC channel = target: T1, PSAM4-5HT3-HC channel (Homo sapiens, UniProt P36544, L131G/M226I/Q139L/T225I/Y217F); assay: Voltage-clamp / membrane potential recordings of PSAM4-5HT3-HC-expressing hiPSC-CMs; type: cell-based; settings: for effect on Varenicline-induced depolarizing current: picrotoxin 100 uM, partial antagonist of 5HT3-IPD
T1 construct: expressed in transfected cells
From the text: The synthetic chemogenetic channel PSAM4-5HT3-HC was created by fusing a mutated α7-nicotinic acetylcholine receptor (PSAM4, engineered to bind the anti-smoking drug Varenicline at sub-therapeutic concentrations) with the ion pore-domain (IPD) of the serotonin receptor 3A (5HT3) with additional mutations made for high conductance (HC) (SEQ ID NO: 12). This molecule was disclosed in Magnus, et al., “Ultrapotent chemogenetics for research and potential clinical applications”, Science, 2019 April 12;364 (6436), hercin incorporated by reference in its entirety. This molecule has only ever been used in neurons; however, it was hypothesized that it could also be employed in other electrically active cells. Specifically, it was hypothesized that expressing this chemogenetic channel in cardiomyocytes would permit dose-dependent modulation of their excitable properties; with weak depolarizing currents leading to increased automaticity, and larger currents causing depolarization-induced electrical silencing.
To test these hypotheses, healthy-donor human induced pluripotent stem cells (hiPSCs) were transfected with a non-viral, randomly integrating, transposon to create a stably engineered line constitutively expressing the PSAM4-5HT3-HC channel together with cGFP (FIG. 1).

[5] = system: control unmodified hiPSC-CMs; assay: Patch-clamp of control unmodified hiPSC-CMs; type: cell-based, human
Description: At higher doses (10 nM), spontaneous generation of action potentials (Aps) ceased (FIG. 2B). This suppression of excitability likely results from the significant membrane diastolic depolarization (−64±7 mV to −10±4 mV; p<0.0001; FIG. 2C) due to the large Varenicline-induced inward current (−6.8±3.2 pA/pF; p<0.01; FIG. 2C).

[6] = system: control, non-transfected, hiPSC-CCSs; assay: Optical mapping of control, non-transfected hiPSC-CCSs; type: cell-based, human; settings: any dose
[7] = system: control (non-transplanted) rat hearts; assay: Optical mapping of Langendorff-perfused control (non-transplanted) rat hearts; type: in vivo; settings: four control hearts, 30 nM with adenosine
From the text: as §2

T1 sequence (P36544 with tags, fused parts or gaps L131G/Q139L/Y217F/T225I/M226I): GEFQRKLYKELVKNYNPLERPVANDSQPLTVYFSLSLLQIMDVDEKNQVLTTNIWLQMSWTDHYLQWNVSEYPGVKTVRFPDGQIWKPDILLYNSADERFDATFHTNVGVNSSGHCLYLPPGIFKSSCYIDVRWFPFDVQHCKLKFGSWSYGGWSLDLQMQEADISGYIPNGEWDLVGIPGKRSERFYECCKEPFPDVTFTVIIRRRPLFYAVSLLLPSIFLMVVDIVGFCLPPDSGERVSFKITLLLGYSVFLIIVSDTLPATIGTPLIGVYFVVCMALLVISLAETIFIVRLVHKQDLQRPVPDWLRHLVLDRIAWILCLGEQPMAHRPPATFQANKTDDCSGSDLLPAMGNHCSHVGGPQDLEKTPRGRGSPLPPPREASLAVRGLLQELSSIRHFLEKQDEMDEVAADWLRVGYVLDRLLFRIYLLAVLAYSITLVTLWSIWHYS

Compound: C[N+]1([O-])CCN(C2=Nc3cc(Cl)ccc3Nc3ccccc32)CC1 [CNO, clozapine-N-oxide]
- electrical activity of the CCS ([1]; 2-5 nM): rapid inactivation (silencing)
- termination of existing reentrant arrhythmias ([1]; 2-5 nM): sufficient to completely terminate existing arrhythmias
- time to recovery of electrical excitability by electrical pacing after washout ([1]; single washout): 30 to 90 s
- time to spontaneous resumption of a normal rhythm (sinus) after washout ([1]; single washout): 2 to 5 min
- conduction of arrhythmia across engineered cells [2]: could no longer cross the engineered cells
- effect on native CMs (native CMs): unaffected

Compound: c1cnc2cc3c(cc2n1)[C@@H]1CNC[C@H]3C1 [Varenicline]
- hearts developing ectopic ventricular activity from area of cell transplantation [3]: four out of five
- excitability of the region containing non-transfected cells ([4]; 100 nM): retained its excitable properties
- spontaneous activity of the co-cultures ([4]; 100 nM): significantly slowed
- electrical activity in the PSAM4-5HT3-hiPSC-CMs area ([4]; 100 nM, in some specimens): complete silencing of electrical activity
- origin of spontaneous activity (pacemaker area) ([4]; baseline origin in control tissue): shifted the pacemaker area to the PSAM4-5HT3-HC tissue
- automaticity of co-culture ([4]; escalating doses): augmented automaticity in a dose-dependent manner
- increase of spontaneous rhythm over baseline ([4]; rhythm arising from the PSAM4-5HT3-hiPSC-CMs): > 6 fold
- cultures' activation frequency (PSAM4-5HT3-hiPSC-CCS): dose-dependent increase
- spontaneous generation of action potentials (PSAM4-5HT3-HC channel; 10 nM): ceased
- membrane diastolic potential after Varenicline (PSAM4-5HT3-HC channel; depolarization from −64±7 mV, p<0.0001, 10 nM (FIG. 2)): −10±4 mV
- Varenicline-induced inward current (PSAM4-5HT3-HC channel; p<0.01, FIG. 2C): −6.8±3.2 pA/pF
- Varenicline-induced depolarizing currents (PSAM4-5HT3-HC channel; voltage-clamp, even at low concentrations (1 nM)): robust Varenicline-induced depolarizing currents
- response to Varenicline [5]: No response
- chronotropic effects [6]: no chronotropic effects
- shift in the activation pattern [7]: did not occur

Compound: picrotoxin
- effect on Varenicline-induced depolarizing current (PSAM4-5HT3-HC channel): suppressing the depolarizing current
- effect on Varenicline-induced depolarizing current (PSAM4-5HT3-HC channel; listed as Picrotoxin): partially reversed
